Measurements reported in US8093028B2, “Engineered glycosyltransferases with expanded substrate specificity” (Wisconsin Alumni Research Foundation, priority 2007, dated 2012).

How the values were obtained:
Format in all cases: biochemical
[1] = target: T1, OleD A242V (Streptomyces antibioticus, UniProt Q53685, A242V/P55A/R82V/R83E/T84P); test: Rate of glucoside formation with acceptors (RP-HPLC); conditions: 200 μM acceptor, 1 mM UDPG
T1 construct: made in house; host or cells: E. coli BL21(DE3)pLysS (error-prone PCR clone in pET28a)
Protocol: (§1) Enzyme assays for the determination of glycosyl transfer rate to FIG. 1: 4, Table 1: 27-32 were carried out in a total volume of 500 μl 50 mM Tris-HCl (pH8.0) containing 5 mM MgCl2, 200 μM acceptor, 1 mM UDPG, and 50 μg pure enzyme. Aliquots (100 μl) were removed between 0 and 30 min, at which time product formation was still linear with respect to time, and quenched with 90 μl of an 8:1 mixture of ice-cold MeOH/HCl, and centrifuged at 14,000 rpm for 10 min. Supernatants were analyzed by analytical reverse-phase HPLC with a 250 mm×4.6 mm Gemini […] C18 column (Phenomenex, Torrance, Calif.) using a gradient of 10-90% CH3CN in 0.1% trifluoroacetic acid (TFA)/H2O in 20 min at 1 ml/min, with detection at 254 nm. HPLC peak areas were integrated, and the product concentration calculated as a percent of the total peak area. Product identity was confirmed by co-elution with a commercial standard when available and, in all cases, by LC-MS (FIG. 8).
(§2) Reaction conditions for assay of macrolide glycosylation were identical to that for FIG. 1: 1, except that typically, less enzyme was used (1-10 μg) and reactions were quenched with an equal volume of ice-cold MeOH. Centrifuged reaction mixtures were analyzed by analytical reverse-phase HPLC with a Gemini 5μ C18 column (Phenomenex) using a gradient of 0-90% CH3CN in 50 mM NH3COOH over 30 min at 1 ml/min. Products and acceptor macrolide were detected by evaporative light scattering detection (ELSD) using a drift tube temperature of 105° C. and a nitrogen flow of 2.5 ml/min. All products were characterized by APCI LC-MS on an Agilent 1100 Series LC/MSD quadrapole mass spectrometer connected to a UV detector. Quenched reaction mixtures were analyzed by reverse-phase HPLC with a 10 mm×4.6 mm Zorbax Extend 5μ C18 Analytical Guard Column (Agilent Technologies) using an isocratic gradient of 80% MeOH in 2 min at 1 ml/min, with detection at 254 nm.
(§3) Enzyme reactions were carried out in a total volume of 500 μl 50 mM Tris-HCl (pH8.0) containing 5 mM MgCl2, 200 μM acceptor, 1 mM UDPG, and 50 μg pure enzyme. Aliquots (100 μl) were removed between 0 and 30 min, and quenched with 90 μl of an 8:1 mixture of ice-cold MeOH/HCl for activity towards FIG. 1: 4, Table 1: 27-32, or with 90 μl of ice-cold MeOH for activity towards FIG. 1: 1, and the samples centrifuged at 14,000 rpm for 10 min.
(§4) For determination of activity to FIG. 1: 4, Table 1: 27-32, supernatants were analyzed by analytical reverse-phase HPLC with a Gemini 5μ C18 column (Phenomenex) using a gradient of 10-90% CH3CN in 0.1% trifluoroacetic acid (TFA)/H2O in 20 min, with detection at 254 nm. HPLC peak areas were integrated, and the product concentration calculated as a percent of the total peak area. All products were characterized by LC-MS. Mass spectra were obtained using electrospray ionization on an Agilent 1100 HPLC-MSD SL quadrapole mass spectrometer connected to a UV/Vis diode array detector. For LC-MS analysis, quenched reaction mixtures (see below) were analyzed by analytical reverse-phase HPLC with a 250 mm×4.6 mm Gemini 5μ C18 column (Phenomenex, Torrance, Calif.) using a gradient of 10-90% CH3CN in 0.1% formic acid/H2O in 20 min at 1 ml/min, with detection at 254 nm.
as §2, with “For determination” for “Reaction conditions for assay”, “activity toward” for “macrolide glycosylation were identical to that for”, “centrifuged” for “except that typically, less enzyme was used (1-10 μg) and reactions were quenched with an equal volume of ice-cold MeOH. Centrifuged”, “Compounds FIG. 1: 1” for “Products”, “3” for “acceptor macrolide”

[2] = target: T2, OleD P67T (Streptomyces antibioticus, UniProt Q53685, P55A/P67T/R82V/R83E/T84P); test: as above; conditions: 200 μM acceptor, 1 mM UDPG
T2 construct: made in house; host or cells: E. coli (site-directed mutant of pET28/OleD)
Protocol: as §1, §2, §3, §4
as §2, with “For determination” for “Reaction conditions for assay”, “activity toward” for “macrolide glycosylation were identical to that for”, “centrifuged” for “except that typically, less enzyme was used (1-10 μg) and reactions were quenched with an equal volume of ice-cold MeOH. Centrifuged”, “Compounds FIG. 1: 1” for “Products”, “3” for “acceptor macrolide”

[3] = target: T3, OleD S132F (Streptomyces antibioticus, UniProt Q53685, P55A/R82V/R83E/S132F/T84P); test: as above; conditions: for Rate of glucoside formation, S132F: 200 μM acceptor, 1 mM UDPG
T3 construct: made in house; host or cells: E. coli (site-directed mutant of pET28/OleD)
Protocol: as §1, §2, §3, §4
as §2, with “For determination” for “Reaction conditions for assay”, “activity toward” for “macrolide glycosylation were identical to that for”, “centrifuged” for “except that typically, less enzyme was used (1-10 μg) and reactions were quenched with an equal volume of ice-cold MeOH. Centrifuged”, “Compounds FIG. 1: 1” for “Products”, “3” for “acceptor macrolide”

[4] = target: T4, WT OleD (Streptomyces antibioticus, UniProt Q53685, P55A/R82V/R83E/T84P); test: as above; conditions: 200 μM acceptor, 1 mM UDPG
T4 construct: made in house; host or cells: E. coli BL21(DE3)pLysS, plasmid pET28/OleD
Protocol: as §1, §2, §3, §4
as §2, with “For determination” for “Reaction conditions for assay”, “activity toward” for “macrolide glycosylation were identical to that for”, “centrifuged” for “except that typically, less enzyme was used (1-10 μg) and reactions were quenched with an equal volume of ice-cold MeOH. Centrifuged”, “Compounds FIG. 1: 1” for “Products”, “3” for “acceptor macrolide”

[5] = target: T5, OleD P67T/S132F/A242V (Streptomyces antibioticus, UniProt Q53685, A242V/P67T/S132F); test: as above; conditions: for Rate of glucoside formation, P67T/S132F/A242V: 200 μM acceptor, 1 mM UDPG; for Fold-improvement compared to WT OleD: rate of P67T/S132F/A242V versus WT
T5 construct: made in house; host or cells: E. coli (site-directed mutant of pET28/OleD)
Protocol: as §1, with “8). […]” for “8).”
as §3, §4
as §2, with “For determination” for “Reaction conditions for assay”, “activity toward” for “macrolide glycosylation were identical to that for”, “centrifuged” for “except that typically, less enzyme was used (1-10 μg) and reactions were quenched with an equal volume of ice-cold MeOH. Centrifuged”, “Compounds FIG. 1: 1” for “Products”, “3” for “acceptor macrolide”

[6] = target: T5, OleD P67T/S132F/A242V; conditions: for Conversion rates (%), P67T/S132F/A242V: Table 3, 4-Me-umb (4) as acceptor, end point assay
Protocol: (§5) Reactions were carried out as described above with the following exceptions. The total volume was 50 μl and the acceptor FIG. 1: 4 was at 50 μM and the NDP-sugar at ˜500 μM. The NDP-sugars were used directly from RmlA-catalyzed reactions. […] Reactions were incubated at 25° C. for 3 h.
(§6) The total volume was 50 μl and the acceptor FIG. 1: 4 or FIG. 1: 1 was at 50 μM and the NDP-sugar at ˜500 μM. The NDP-sugars were used directly from RmlA-catalyzed reactions. […] Reactions were incubated at 25° C. for 3 h.
(§7) For activity toward FIG. 1: 4, aliquots (25 μl) were quenched with 25 μl of an 8:1 mixture of ice-cold MeOH/HCl, and centrifuged at 14,000 rpm for 10 min. […] HPLC peak areas were integrated, and the product concentration calculated as a percent of the total peak area. All products were characterized by LC-MS. Mass spectra were obtained using electrospray ionization on an Agilent 1100 HPLC-MSD SL quadrapole mass spectrometer connected to a UV/Vis diode array detector.

[7] = target: T1, OleD A242V; conditions: Table 3; 4-Me-umb (4) as acceptor, end point assay
Protocol: as §5, §6, §7

[8] = target: T2, OleD P67T; conditions: Table 3; 4-Me-umb (4) as acceptor, end point assay
Protocol: as §5, §6, §7

[9] = target: T3, OleD S132F; conditions: Table 3; 4-Me-umb (4) as acceptor, end point assay
Protocol: as §5, §6, §7

Molecule	Rate of glucoside formation, A242V [1]	Rate of glucoside formation, P67T [2]	Rate of glucoside formation, S132F [3]	activity, fold more than WT OleD ([3]; UDPG donor) [fold]	Rate of glucoside formation, WT [4]	Rate of glucoside formation, P67T/S132F/A242V [5]	glucosylation rate, fold less than the WT enzyme ([5]; UDPG donor) [fold]	Fold-improvement compared to WT OleD ([5]; UDPG donor) [fold]	Conversion rates (%), P67T/S132F/A242V [6] [%]	Rate of glucoside formation, WT ([4]; listed as Table 1: 28)	Conversion rates (%), A242V [7] [%]	Conversion rates (%), P67T [8] [%]	Conversion Rate (%), P67T/S132F/A242V ([6]; Table 2, acceptor 4 at 50 μM, NDP-sugar ~500 μM, 25° C., 3 h) [%]	Conversion rates (%), S132F [9] [%]	Fold-improvement compared to WT OleD ([5]; UDPG donor, listed as Table 1: 27) [fold]
CO[C@H]1C[C@H](O[C@H]2[C@H](C)[C@@H](O[C@@H]3O[C@H](C)C[C@H](N(C)C)[C@H]3O)[C@@H](C)C[C@@]3(CO3)C(=O)[C@H](C)[C@@H](O)[C@@H](C)[C@@H](C)OC(=O)[C@@H]2C)O[C@@H](C)[C@@H]1O [oleandomycin (1), oleandomycin]	70 mmols/product formed/min/μg enzyme × 10^3	20 mmols/product formed/min/μg enzyme × 10^3	1487 mmols/product formed/min/μg enzyme × 10^3	~2	700 mmols/product formed/min/μg enzyme × 10^3	13 mmols/product formed/min/μg enzyme × 10^3	~54	0.02	–	–	–	–	–	–	–
UDP-2-amino-glc [UDP-2-amino-glc (19)]	–	–	–	–	–	–	–	–	24	–	–	–	–	–	–
O=c1c(O)c(-c2ccc(O)cc2)oc2cc(O)cc(O)c12 [kaempferol (30), kaempferol]	15.3 mmols/product formed/min/μg enzyme × 10^3	99.9 mmols/product formed/min/μg enzyme × 10^3	23 mmols/product formed/min/μg enzyme × 10^3	–	13.2 mmols/product formed/min/μg enzyme × 10^3	28 mmols/product formed/min/μg enzyme × 10^3	–	2.1	–	–	–	–	–	–	–
O=C(O)c1cc2ccc(O)cc2oc1=O [7-hydroxycoumarin-3-carboxylic acid (28), 7-hydroxycoumarin-3-carboxylic acid]	0.01 mmols/product formed/min/μg enzyme × 10^3	0.022 mmols/product formed/min/μg enzyme × 10^3	0.022 mmols/product formed/min/μg enzyme × 10^3	–	0.01 mmols/product formed/min/μg enzyme × 10^3	0.62 mmols/product formed/min/μg enzyme × 10^3	–	62	–	essentially non-detectable substrates	–	–	–	–	–
O=c1ccn([C@@H]2O[C@H](COP(=O)(O)OP(=O)(O)O[C@H]3OC[C@@H](O)[C@H](O)[C@H]3O)[C@@H](O)[C@H]2O)c(=O)[nH]1 [UDP-xylose (7), UDP-xylose]	–	–	–	–	–	–	–	–	31	–	2	2	31	1.5	–
O=c1c(-c2ccc(O)cc2)coc2cc(O)ccc12 [daidzein (31), daidzein]	8.5 mmols/product formed/min/μg enzyme × 10^3	16.0 mmols/product formed/min/μg enzyme × 10^3	5.5 mmols/product formed/min/μg enzyme × 10^3	–	4.2 mmols/product formed/min/μg enzyme × 10^3	24 mmols/product formed/min/μg enzyme × 10^3	–	5.7	–	–	–	–	–	–	–
O=c1c(-c2ccc(O)cc2)coc2cc(O)cc(O)c12 [genistein (32), genistein]	14.1 mmols/product formed/min/μg enzyme × 10^3	28.8 mmols/product formed/min/μg enzyme × 10^3	8.8 mmols/product formed/min/μg enzyme × 10^3	–	3.4 mmols/product formed/min/μg enzyme × 10^3	26 mmols/product formed/min/μg enzyme × 10^3	–	7.7	–	–	–	–	–	–	–
O=C(O)Cc1cc(=O)oc2cc(O)ccc12 [7-hydroxycoumarin-4-acetic acid (27), 7-hydroxycoumarin-4-acetic acid]	0.16 mmols/product formed/min/μg enzyme × 10^3	0.22 mmols/product formed/min/μg enzyme × 10^3	0.08 mmols/product formed/min/μg enzyme × 10^3	–	essentially non-detectable substrates	3.6 mmols/product formed/min/μg enzyme × 10^3	–	>180	–	–	–	–	–	–	> 180
